# Assay results as given in paper PMC11901902, “Design, Synthesis, and Cytotoxicity Evaluation of Novel Indolin-2-One Based Molecules on Hepatocellular Carcinoma HepG2 Cells as Protein Kinase Inhibitors” (Molecules, 2025).
# Assays:
# Bcl-2 = assay: ELISA of Bcl-2 in treated HepG-2 cells; assay type: cell-based, human; details: HepG-2, compound at its IC50; ± S.E.M; control 360.90±31.71
# Procedure: (§1) HepG2 cells were cultured in RPMI 10% + 5%FBS penicillin/streptomycin and were incubated at a humidity 5% CO2 and maintained at 37 °C. […] HepG2 cells were cultured as a monolayer in T-25 flasks and were seeded to attain 30% confluency prior to treatment. The main 100 mM stock dissolved in DMSO was diluted with the cell culture medium in order to reach the previously determined IC50 concentration of each of the three preparations. After that, HepG2 cells were collected via trypsinization and centrifuged at 10,000 rpm. The pellet was then rinsed with PBS and lysed in RIPA lysis buffer at 4 °C for 45 min, then centrifuged at 14,000 rpm for 20 min to remove the cellular debris. Lysates were then collected and stored at […] for protein determination. The levels of p53, p21, Fas-L, Bax, Bcl-2, and caspase 3/7 were assessed using the human P53 ELISA kit (Catalog No. ABIN6962151), P21 ELISA kit (Catalog No. ABIN6966175), Human Apoptosis Ligand (FAS-L), Bax ELISA kit, Human Factor-Related. Bcl-2 ELISA kit ELISA kit, and caspase3/7 ELISA kit (Elabscience Biotechnology Co., Wuhan, Hubei, China). The procedure of the used kits was done according to the manufacturer’s instructions. Briefly, equal amounts of cell lysates were loaded and then probed with specific antibodies. The samples were measured at 450 nm in ROBONEK P2000 ELISA reader. […]
# p21 = assay: ELISA of p21 in treated HepG-2 cells; assay type: cell-based, human; details: HepG-2, compound at its IC50, 24 h
# Procedure: as §1
# VEGFR-2 = target: T1, VEGFR-2 (Homo sapiens, UniProt P35968); assay: Kinase-Glo Plus luminescence kinase inhibition assay, VEGFR-2; assay type: biochemical; details: 10 µM ATP, 30 °C, 40 min; mean ± SEM
# T1 construct: purchased BPS Bioscience 40301
# T1 sequence (P35968 20-1356): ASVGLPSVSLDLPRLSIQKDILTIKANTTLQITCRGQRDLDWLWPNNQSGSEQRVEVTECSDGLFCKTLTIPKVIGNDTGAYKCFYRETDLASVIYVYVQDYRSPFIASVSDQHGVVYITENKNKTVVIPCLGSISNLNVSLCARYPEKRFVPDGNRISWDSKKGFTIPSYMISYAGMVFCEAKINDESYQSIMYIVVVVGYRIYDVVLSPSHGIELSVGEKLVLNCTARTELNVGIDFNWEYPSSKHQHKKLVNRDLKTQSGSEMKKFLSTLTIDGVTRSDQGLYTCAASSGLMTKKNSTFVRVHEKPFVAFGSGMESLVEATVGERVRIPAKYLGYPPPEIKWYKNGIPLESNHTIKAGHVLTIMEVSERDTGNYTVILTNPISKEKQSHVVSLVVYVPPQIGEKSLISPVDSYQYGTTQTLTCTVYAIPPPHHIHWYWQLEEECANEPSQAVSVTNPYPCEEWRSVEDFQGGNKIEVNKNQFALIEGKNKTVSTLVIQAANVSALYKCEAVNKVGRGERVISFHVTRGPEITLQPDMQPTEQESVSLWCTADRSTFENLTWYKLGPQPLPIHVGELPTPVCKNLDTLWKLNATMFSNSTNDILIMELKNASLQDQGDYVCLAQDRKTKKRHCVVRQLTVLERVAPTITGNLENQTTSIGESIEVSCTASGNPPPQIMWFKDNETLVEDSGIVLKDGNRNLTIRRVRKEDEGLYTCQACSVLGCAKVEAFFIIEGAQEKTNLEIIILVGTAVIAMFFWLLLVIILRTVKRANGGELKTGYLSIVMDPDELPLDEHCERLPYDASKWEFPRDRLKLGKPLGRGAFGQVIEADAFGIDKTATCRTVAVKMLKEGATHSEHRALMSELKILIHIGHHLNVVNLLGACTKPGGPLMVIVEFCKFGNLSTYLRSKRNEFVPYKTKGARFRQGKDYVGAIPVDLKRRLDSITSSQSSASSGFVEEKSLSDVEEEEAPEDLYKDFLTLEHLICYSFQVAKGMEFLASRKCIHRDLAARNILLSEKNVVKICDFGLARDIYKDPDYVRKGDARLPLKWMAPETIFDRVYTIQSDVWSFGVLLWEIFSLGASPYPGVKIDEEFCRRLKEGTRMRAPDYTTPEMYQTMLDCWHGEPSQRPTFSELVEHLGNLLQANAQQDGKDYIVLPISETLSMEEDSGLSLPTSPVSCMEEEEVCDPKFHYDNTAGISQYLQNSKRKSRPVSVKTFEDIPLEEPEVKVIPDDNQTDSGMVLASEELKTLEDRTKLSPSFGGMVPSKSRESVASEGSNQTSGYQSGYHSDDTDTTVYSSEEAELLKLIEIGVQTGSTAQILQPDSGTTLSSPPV
# Procedure: The enzyme inhibition assay for the tested molecules was performed at BPS Bioscience Corporation, San Diego, CA, USA. The following materials served as the enzyme sources, Poly (Glu, Tyr) sodium salt (4:1, Glu:Tyr) (Sigma#P7244) served as the standardized substrate, and the Kinase-Glo Plus Luminescence kinase assay kit (Promega # V3772) was used. […] Glo Plus luminescence kinase assay kits. The assays were performed using Kinase-Glo Plus luminescence (Promega Corporation, Madison, WI, USA).
# The tested molecules 9, 20, and indurbin were diluted to 100 µL in DMSO (10%), and 5 µL of the solution was added to a 50-µL enzyme reaction until the final concentration of DMSO was 1% in all of reactions. The enzymatic reactions were conducted at 30 °C for 40 min. The reaction mixture contained enzyme substrate and respective kinases. After the enzymatic reaction, 50 µL of enzyme-Glo Plus luminescence […] assay solution (Promega) was added to each reaction, and the plate was incubated for 5 min at room temperature. The luminescence signal was measured using a BioTek Synergy 2 microplate reader. The luminescence data were analyzed using the computer software GraphPad Prism. The difference between luminescence intensities in the absence of enzyme (Lut) and in the presence of enzyme (Luc) was defined as 100% activity (Lut − Luc). […] The IC50 value was determined using GraphPad Prism software. […]
# Glo Plus luminescence kinase assay kits were used in these assays. […] The assay measures kinase activity by quantitating the amount of ATP remaining in the solution following kinase reaction. […] After the enzymatic reaction, 50 µL of Kinase-Glo Plus Luminescence kinase assay solution (Promega) was added to each reaction, and the plate was incubated for 5 min at room temperature. The luminescence signal was measured using a BioTek Synergy 2 microplate reader. […] The luminescence data were analyzed using the Graphpad Prism software.
# caspase 3/7 = assay: ELISA of caspase 3/7 in treated HepG-2 cells; assay type: cell-based, human; details: for increase of caspase 3/7 levels compared with untreated cells: HepG-2, compound at its IC50, 24 h; for Concentration of caspases 3/7: HepG-2, compound at its IC50, ± S.E.M, control 11.90±1.71
# Procedure: HepG2 cells were cultured in RPMI 10% + 5%FBS penicillin/streptomycin and were incubated at a humidity 5% CO2 and maintained at 37 °C. […] HepG2 cells were cultured as a monolayer in T-25 flasks and were seeded to attain 30% confluency prior to treatment. The main 100 mM stock dissolved in DMSO was diluted with the cell culture medium in order to reach the previously determined IC50 concentration of each of the three preparations. After that, HepG2 cells were collected via trypsinization and centrifuged at 10,000 rpm. The pellet was then rinsed with PBS and lysed in RIPA lysis buffer at 4 °C for 45 min, then centrifuged at 14,000 rpm for 20 min to remove the cellular debris. Lysates were then collected and stored at […] for protein determination. The levels of p53, p21, Fas-L, Bax, Bcl-2, and caspase 3/7 were assessed using the human P53 ELISA kit (Catalog No. ABIN6962151), P21 ELISA kit (Catalog No. ABIN6966175), Human Apoptosis Ligand (FAS-L), Bax ELISA kit, Human Factor-Related. Bcl-2 ELISA kit ELISA kit, and caspase3/7 ELISA kit (Elabscience Biotechnology Co., Wuhan, Hubei, China). The procedure of the used kits was done according to the manufacturer’s instructions. Briefly, equal amounts of cell lysates were loaded and then probed with specific antibodies. The samples were measured at 450 nm in ROBONEK P2000 ELISA reader. The analysis was confirmed with three different sets of extracts. All experiments were done in triplicate (Tables S6–S9).
SMILES,Concentration of Bcl-2 (Bcl-2),upregulation of p21 expression compared to untreated cells (p21),IC50 (VEGFR-2),increase of caspase 3/7 levels compared with untreated cells (caspase 3/7),Concentration of caspases 3/7 (caspase 3/7)
"O=C1Nc2ccc(Cl)cc2C1=Nc1ccc2nc[nH]c(=O)c2c1 [Compound 9, 6-(5-Chloro-2-oxo-1,2-dihydro-indol-3-ylideneamino)-3H-quinazolin-4-one]",90.15 ± 8.27 pg/mL,4.52 fold,56.7 ± 4.3 nM,5.3 fold,62.13 ± 5.27 pg/mL
"O=C1Nc2ccc(Cl)cc2C1=Nc1ccc(-c2nc3ccccc3c(=O)[nH]2)cc1 [Compound 20, 2-[4-(5-Chloro-2-oxo-1,2-dihydro-indol-3-ylideneamino)-phenyl]-3H-quinazolin-4-one]",160.32 ± 10.82 pg/mL,3.9 fold,14.3 ± 2.7 nM,3.2 fold,37.32 ± 4.82 pg/mL
